Laboratory results taken from PMC3950723, “A fluorescence-based assay suitable for quantitative analysis of deadenylase enzyme activity” (Nucleic Acids Research, 2013).
{Flc} = fluorescein group

What was measured:
Type in all cases: biochemical
Caf1/CNOT7 = target: T1, Caf1/CNOT7 (Homo sapiens, UniProt Q9UIV1); experiment: fluorescence-based deadenylase assay; settings: for inhibition of Caf1/CNOT7 activity: 300 µM compound; for IC50: 15 min pre-incubation at room temperature, 60 min at 30°C, ± standard error of the mean, at least three independent experiments
T1 construct: hexahistidine (N); made in house; host or cells: Escherichia coli BL21 (DE3), plasmid pQE80L
T1 sequence (Q9UIV1 whole entry): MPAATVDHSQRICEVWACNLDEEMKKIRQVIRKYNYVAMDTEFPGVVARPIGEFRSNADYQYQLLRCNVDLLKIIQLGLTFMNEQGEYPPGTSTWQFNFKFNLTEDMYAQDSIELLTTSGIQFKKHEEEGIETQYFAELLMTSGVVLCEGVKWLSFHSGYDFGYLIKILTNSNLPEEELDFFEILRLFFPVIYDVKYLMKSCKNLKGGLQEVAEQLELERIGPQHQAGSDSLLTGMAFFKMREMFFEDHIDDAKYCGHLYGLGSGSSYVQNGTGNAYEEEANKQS
Method: (§1) Standard reaction conditions for deadenylase assays were: 20 mM Tris–HCl pH 7.9, 50 mM NaCl, 2 mM MgCl2, 10% glycerol, 1 mM β-mercaptoethanol and 1.0 µM 5′-Flc-labelled RNA substrate in nuclease-free water.
(§2) For fluorescence-based detection of nuclease activity, deadenylase reactions (10–20 µl) were incubated at 30°C for 60 min and stopped by the addition of an equal volume of probe mix containing 1% SDS, and a 5-fold molar excess of 3′-labelled DNA probe. Fluorescence intensity was measured at 25°C (sensitivity setting 70–90) using a BioTek Synergy HT plate reader with 96 or 384 U-shaped black multi-well plates. Filter sets used were: 485 ± 20 nm (excitation) and 528 ± 20 nm (emission). Data analysis and curve-fitting were carried out using Microsoft Excel 2007 and Graphpad Prism 5.0.
Compounds (10 mM in dimethyl sulphoxide, DMSO) were stored in a dry, inert environment at −20°C and dispensed in 96-well plates using an automated facility (TTP Labtech Technology). Compounds were diluted to 0.5 mM using 20% DMSO/water. Aliquots (4 µl; 25% DMSO/water) were transferred to black U-well 384-well plates (Greiner Bio-One) and subsequent automated screening was carried out using a Biomek 3000 liquid handler (Beckman Coulter). After addition of enzyme (8 µl containing 1.0 µM Caf1/CNOT7, 50 mM Tris–HCl pH 7.9, 125 mM NaCl, 5 mM MgCl2, 25% glycerol, 2.5 mM β-mercaptoethanol), plates were left at room temperature for 15 min before the addition of RNA substrate (8 µl). The composition of the final reaction mixture was: 0.4 µM Caf1/CNOT7, 20 mM Tris–HCl pH 7.9, 50 mM NaCl, 2 mM MgCl2, 10% glycerol, 1 mM β-mercaptoethanol, 5% DMSO, 100 µM library compound. After incubation at 30°C for 60 min, 20 µl probe mix (5 µM DNA probe, 1% SDS, 20 mM Tris–HCl pH 8.0, 0.5 mM EDTA) was added. Fluorescence was measured using a BioTek Synergy HT plate reader as described above.

Ccr4/CNOT6L = target: T2, Ccr4/CNOT6L (Homo sapiens, UniProt Q96LI5); experiment: fluorescence-based deadenylase assay, selectivity; settings: 300 µM compound
T2 construct: lacking the amino terminal leucine-rich repeat domain (amino acids 1–155); made in house; host or cells: E. coli, plasmid pQE80L
T2 sequence (Q96LI5 156-555): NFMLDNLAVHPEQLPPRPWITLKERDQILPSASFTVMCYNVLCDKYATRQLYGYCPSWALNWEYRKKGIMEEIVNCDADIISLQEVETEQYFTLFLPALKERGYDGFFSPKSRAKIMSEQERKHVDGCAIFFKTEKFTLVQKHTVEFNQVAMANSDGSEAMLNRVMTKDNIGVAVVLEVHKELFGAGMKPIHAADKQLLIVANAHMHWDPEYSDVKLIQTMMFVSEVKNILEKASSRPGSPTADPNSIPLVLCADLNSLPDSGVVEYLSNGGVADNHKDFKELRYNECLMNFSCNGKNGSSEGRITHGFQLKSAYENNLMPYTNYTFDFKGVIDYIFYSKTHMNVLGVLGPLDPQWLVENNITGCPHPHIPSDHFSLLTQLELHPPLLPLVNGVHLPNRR
Method: as §1, §2

PARN = target: T3, PARN (Homo sapiens, UniProt O95453); experiment: fluorescence-based deadenylase assay, selectivity; settings: 300 µM compound
T3 construct: made in house
T3 sequence (O95453 1-639): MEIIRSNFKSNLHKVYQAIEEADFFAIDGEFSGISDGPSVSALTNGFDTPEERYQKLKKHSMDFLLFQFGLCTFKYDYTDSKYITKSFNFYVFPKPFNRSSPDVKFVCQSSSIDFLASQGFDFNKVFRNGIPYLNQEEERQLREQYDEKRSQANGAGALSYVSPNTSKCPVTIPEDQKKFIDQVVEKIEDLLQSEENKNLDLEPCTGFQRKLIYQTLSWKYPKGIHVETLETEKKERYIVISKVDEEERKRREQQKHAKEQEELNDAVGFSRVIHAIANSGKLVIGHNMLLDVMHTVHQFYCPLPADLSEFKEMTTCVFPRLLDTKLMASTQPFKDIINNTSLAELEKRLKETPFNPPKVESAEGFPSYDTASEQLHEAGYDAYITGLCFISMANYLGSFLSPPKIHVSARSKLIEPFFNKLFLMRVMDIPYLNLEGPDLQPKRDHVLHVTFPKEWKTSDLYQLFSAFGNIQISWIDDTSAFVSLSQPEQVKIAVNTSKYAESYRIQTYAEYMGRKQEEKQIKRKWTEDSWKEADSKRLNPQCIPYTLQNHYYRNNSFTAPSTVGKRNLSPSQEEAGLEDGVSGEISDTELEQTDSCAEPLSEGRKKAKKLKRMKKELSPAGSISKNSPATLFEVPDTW
Method: as §1, §2

[1] = system: HeLa S-100 cytoplasmic extract; experiment: fluorescence-based detection of 3′ exonuclease activity in complex mixtures; settings: 300 µM compound, 0.05 mg/ml S-100 fraction
Method: as §1, §2
HeLa cytoplasmic extract (S-100 fraction) was purchased from Boston Biochem (cat no F-372, 5 mg/ml).

Molecule | inhibition of Caf1/CNOT7 activity (Caf1/CNOT7) | IC50 (Caf1/CNOT7) [µM] | inhibition of Ccr4/CNOT6L activity (Ccr4/CNOT6L) | inhibition of PARN activity (PARN) | Km (Caf1/CNOT7; 0.4 µM Caf1/CNOT7, non-linear regression of Michaelis–Menten equation) [µM] | inhibition of activity of the S-100 fraction [1]
5′-CCU UUC CAA AAA AAA A-3′ (CCUUUCCAAAAAAAAA; RNA, 5' {Flc}, backbone not given here; Deadenylase RNA substrate) [oligonucleotide substrate, 16-mer RNA substrate oligonucleotide containing a 5′ fluorescein (Flc) group, reference compound] |  |  |  |  | 10.6 ± 2.9 | 
CC(Cc1ccco1)NC(=O)CSc1nnc(C(=O)Nc2ccc(Cl)cc2)s1 (stereo not drawn) [NCC-00007277] |  | 137 ± 20.3 |  |  |  | strongest effect
Cc1ccc(S(=O)(=O)NCc2nnc(NC(=O)c3ccc(NC(=O)C(F)(F)F)cc3)s2)cc1 [NCC-00010651] |  | 233 ± 23.5 | no complete inhibition | no complete inhibition |  | 

The remaining molecules from weak to strong by IC50 (Caf1/CNOT7), led by results:

inhibition of Caf1/CNOT7 activity (Caf1/CNOT7) | IC50 (Caf1/CNOT7) [µM] | inhibition of Ccr4/CNOT6L activity (Ccr4/CNOT6L) | inhibition of PARN activity (PARN) | Molecule | Km (Caf1/CNOT7; 0.4 µM Caf1/CNOT7, non-linear regression of Michaelis–Menten equation) [µM] | inhibition of activity of the S-100 fraction [1]
only inhibited Caf1/CNOT7 | 129 ± 18.8 | did not inhibit | did not inhibit | COc1ccccc1NC(=O)c1ccc(NC(=O)CNC(=O)C(=O)NCc2cccs2)cc1 [NCC-00039069] |  | 
only inhibited Caf1/CNOT7 | 98.7 ± 10.9 | did not inhibit | did not inhibit | Cc1ccccc1C(=O)Nc1nc2ccc(S(=O)(=O)NCC(C)C)cc2s1 [NCC-00001590] |  | 
 | 97.5 ± 36.1 |  |  | Cc1ccc(N(CCC#N)C(=O)CSc2nc3cc(S(N)(=O)=O)ccc3n2C)cc1 [NCC-00019223] |  | 
